Measurements from patent US7314958B2, “Phenylbenzamides” (Bayer CropScience AG, priority 2002, dated 2008).
Values belong to the molecule of their own block, whether it stands above or below them.

Columns and labels:
[1] = logP determination by HPLC, reversed-phase column (C 18), acidic range; assay type: physicochemical; conditions: pH 2.3, 0.1% aqueous phosphoric acid/acetonitrile, 43° C.
Procedure: The logP values given in the Preparation Examples were determined in accordance with EEC Directive 79/831 Annex V.A8 by HPLC (High Performance Liquid Chromatography) using a reversed-phase column (C 18). Temperature: 43° C. Mobile phases for the determination in the acidic range: 0.1% aqueous phosphoric acid, acetonitrile; linear gradient from 10% acetonitrile to 90% acetonitrile. Calibration was carried out using unbranched alkan-2-ones (having 3 to 16 carbon atoms) with known logP values (determination of the logP values by the retention times using linear interpolation between two successive […]).

[2] = system: Sphaerotheca fuliginea; experiment: Sphaerotheca test (cucumber)/protective; assay type: in vivo; conditions: Podosphaera fuliginea, 168 h; comparative experiment; application rate 500 ppm; read-out: Example A Spaerotheca test (cucumber) protective efficacy in %
Procedure: Sphaerotheca Test (Cucumber)/Protective
• Solvents: 24.5 parts by weight of acetone 24.5 parts by weight of dimethylacetamide • Emulsifier: 1 part by weight of alkylaryl polyglycol ether
(§1) To produce a suitable preparation of active compound, 1 part by weight of active compound is mixed with the stated amounts of solvent and emulsifier, and the concentrate is diluted with water to the desired concentration.
To test for protective activity, young plants are sprayed with the preparation of active compound at the stated application rate. After the spray coating has dried on, the plants are inoculated with an aqueous spore suspension of Sphaerotheca fuliginea. The plants are then placed in a greenhouse at about 23° C. and a relative atmospheric humidity of about 70%.
Evaluation is carried out 7 days after the inoculation. 0% means an efficacy which corresponds to that of the control, whereas an efficacy of 100% means that no infection is observed.
The compounds were tested in comparative experiments according to use examples A [Spaerotheca test (cucumber)/protective], D [Alternaria test (tomato)/protective] and E [Erysiphe test (barley)/protective].
In each case, the application rate was 500 ppm.

[3] = system: Alternaria solani; experiment: Alternaria test (tomato)/protective; assay type: in vivo; conditions: 168 h, comparative experiment, application rate 500 ppm, read-out: Example D Alternaria test (tomato) protective efficacy in %
Procedure: Alternaria Test (Tomato)/Protective • Solvent: 49 parts by weight of N,N-dimethylformamide • Emulsifier: 1 part by weight of alkylaryl polyglycol ether To produce a suitable preparation of active compound, 1 part by weight of active compound is mixed with the stated amounts of solvent and emulsifier, and the concentrate is diluted with water to the desired concentration. To test for protective activity, young tomato plants are sprayed with the preparation of active compound at the stated application rate. 1 day after the treatment, the plants are inoculated with an aqueous spore suspension of Alternaria solani and then remain at 100% relative atmospheric humidity for 24 hours. The plants are then kept at about 96% relative atmospheric humidity and a temperature of 20° C. Evaluation is carried out 7 days after the inoculation. 0% means an efficacy which corresponds to that of the control, whereas an efficacy of 100% means that no infection is observed. The compounds were tested in comparative experiments according to use examples A [Spaerotheca test (cucumber)/protective], D [Alternaria test (tomato)/protective] and E [Erysiphe test (barley)/protective]. In each case, the application rate was 500 ppm.

[4] = system: Erysiphe graminis f. sp. hordei; experiment: Erysiphe test (barley)/protective; assay type: in vivo; conditions: Blumeria graminis, 168 h; comparative experiment; application rate 500 ppm; read-out: Example E Erysiphe test (barley) protective efficacy in %
Procedure: Erysiphe Test (Barley)/Protective • Solvent: 49 parts by weight of N,N-dimethylformamide • Emulsifier: 1 part by weight of alkylaryl polyglycol ether To produce a suitable preparation of active compound, 1 part by weight of active compound is mixed with the stated amounts of solvent and emulsifier, and the concentrate is diluted with water to the desired concentration. To test for protective activity, young cereal plants are sprayed with the preparation of active compound at the stated application rate. 1 day after the treatment, the plants are inoculated with spores of Erysiphe graminis f. sp. hordei. The plants are then placed in a greenhouse at 70% relative atmospheric humidity and a temperature of 18° C. Evaluation is carried out 7 days after the inoculation. 0% means an efficacy which corresponds to that of the control, whereas an efficacy of 100% means that no infection is observed. The compounds were tested in comparative experiments according to use examples A [Spaerotheca test (cucumber)/protective], D [Alternaria test (tomato)/protective] and E [Erysiphe test (barley)/protective]. In each case, the application rate was 500 ppm.

[5] = system: Venturia inaequalis; experiment: Venturia test (apple)/protective; assay type: in vivo; conditions: protective, application rate 100 g/ha, evaluation 10 days after inoculation
Procedure: Venturia Test (Apple)/Protective
• Solvents: 24.5 parts by weight of acetone 24.5 parts by weight of dimethylacetamide • Emulsifier: 1.0 part by weight of alkylaryl polyglycol ether
as §1
To test for protective activity, young plants are sprayed with the preparation of active compound at the stated application rate. After the spray coating has dried on, the plants are inoculated with an aqueous conidia suspension of the apple scab pathogen Venturia inaequalis and then remain in an incubation cabin at about 20° C. and 100% relative atmospheric humidity for 1 day.
The plants are then placed in a greenhouse at about 21° C. and a relative atmospheric humidity of about 90%.
Evaluation is carried out 10 days after the inoculation. 0% means an efficacy which corresponds to that of the control, whilst an efficacy of 100% means that no infection is observed.

[6] = system: Sphaerotheca fuliginea; experiment: Sphaerotheca test (cucumber)/protective; assay type: in vivo; conditions: protective, application rate 100 g/ha, evaluation 7 days after inoculation
[7] = system: Erysiphe graminis f. sp. hordei; experiment: Erysiphe test (barley)/protective; assay type: in vivo; conditions: protective, application rate 750 g/ha, evaluation 7 days after inoculation
[8] = system: Alternaria solani; experiment: Alternaria test (tomato)/protective; assay type: in vivo; conditions: protective, application rate 750 g/ha, evaluation 7 days after inoculation
[9] = system: Botrytis cinerea; experiment: Botrytis test (bean)/protective; assay type: in vivo; conditions: protective, application rate 500 g/ha, evaluation 2 days after inoculation
Procedure: Botrytis Test (Bean)/Protective • Solvent: 49 parts by weight of N,N-dimethylformamide • Emulsifier: 1 part by weight of alkylaryl polyglycol ether To produce a suitable preparation of active compound, 1 part by weight of active compound is mixed with the stated amounts of solvent and emulsifier, and the concentrate is diluted with water to the desired concentration. To test for protective activity, young plants are sprayed with the preparation of active compound at the stated application rate. After the spray coating has dried on, 2 small pieces of agar colonized by Botrytis cinerea are placed onto each leaf. The inoculated plants are placed in a dark chamber at about 20° C. and 100% relative atmospheric humidity. 2 days after the inoculation, the size of the infected areas on the leaves is evaluated. 0% means an efficacy which corresponds to that of the control, whereas an efficacy of 100% means that no infection is observed.

chromatographic logP [1]: 4.01
SMILES: CC(C)CC(C)c1ccccc1NC(=O)c1ccccc1Br (stereo not shown) [Example 5, N-[2-(1,3-dimethylbutyl)phenyl]-2-bromobenzamide]
pest or weed control at 500 ppm [2]: 95% | pest or weed control at 500 ppm [3]: 90% | pest or weed control at 500 ppm [4]: 30%

SMILES: CCC(C)c1ccccc1NC(=O)c1ccccc1I (stereo not shown) [No.14.4(p. 42)]
pest or weed control at 500 ppm [2]: 10% | pest or weed control at 500 ppm [3]: 10% | pest or weed control at 500 ppm [4]: 20%

SMILES: CCCCCCc1ccccc1NC(=O)c1ccccc1C(F)(F)F [No. 6.9(p. 24)]
pest or weed control at 500 ppm [2]: 0% | pest or weed control at 500 ppm [3]: 0% | pest or weed control at 500 ppm [4]: 0%

SMILES: CC(C)CC(C)c1ccccc1NC(=O)c1ccccc1I (stereo not shown) [drawing 13]
Efficacy in % [5]: 100%

SMILES: CC(C)CC(C)c1ccccc1NC(=O)c1ccccc1I (stereo not shown) [drawing 11]
Efficacy in % [6]: 100%

SMILES: CC(C)CC(C)c1ccccc1NC(=O)c1ccccc1I (stereo not shown) [drawing 19]
Efficacy in % [7]: 95%

SMILES: CCCCc1ccccc1NC(=O)c1ccccc1C(F)(F)F [No. 6.3(p. 24)]
pest or weed control at 500 ppm [2]: 10% | pest or weed control at 500 ppm [3]: 0% | pest or weed control at 500 ppm [4]: 10%

chromatographic logP [1]: 4.09
SMILES: CC(C)CC(C)c1ccccc1NC(=O)c1ccccc1C(F)(F)F (stereo not shown) [Example 2, N-[2-(1,3-dimethylbutyl)phenyl]-2-(trifluoromethyl)benzamide]
pest or weed control at 500 ppm [2]: 100% | pest or weed control at 500 ppm [3]: 95% | pest or weed control at 500 ppm [4]: 90%

SMILES: CC(C)CC(C)c1ccccc1NC(=O)c1ccccc1C(F)(F)F (stereo not shown) [drawing 16]
Efficacy in % [8]: 100%

SMILES: CC(C)CC(C)c1ccccc1NC(=O)c1ccccc1C(F)(F)F (stereo not shown) [drawing 10]
Efficacy in % [6]: 100%

SMILES: CC(C)CC(C)c1ccccc1NC(=O)c1ccccc1C(F)(F)F (stereo not shown) [drawing 18]
Efficacy in % [7]: 95%

SMILES: CCCCCCc1ccccc1NC(=O)c1ccccc1I [No.14.9(p. 42)]
pest or weed control at 500 ppm [2]: 0% | pest or weed control at 500 ppm [3]: 0% | pest or weed control at 500 ppm [4]: 0%

chromatographic logP [1]: 4.12
SMILES: CC(C)CC(C)c1ccccc1NC(=O)c1ccccc1I (stereo not shown) [Example 3, N-[2-(1,3-dimethylbutyl)phenyl]-2-iodobenzamide]
pest or weed control at 500 ppm [2]: 100% | pest or weed control at 500 ppm [3]: 95% | pest or weed control at 500 ppm [4]: 95%

SMILES: CC(C)CC(C)c1ccccc1NC(=O)c1ccccc1C(F)(F)F (stereo not shown) [drawing 12]
Efficacy in % [5]: 100%

SMILES: CCC(C)c1ccccc1NC(=O)c1ccccc1C(F)(F)F (stereo not shown) [No. 6.4(p. 24)]
pest or weed control at 500 ppm [2]: 30% | pest or weed control at 500 ppm [3]: 30% | pest or weed control at 500 ppm [4]: 0%

SMILES: CCCCc1ccccc1NC(=O)c1ccccc1I [No.14.3(p. 42)]
pest or weed control at 500 ppm [2]: 0% | pest or weed control at 500 ppm [3]: 0% | pest or weed control at 500 ppm [4]: 0%

SMILES: CC(C)CC(C)c1ccccc1NC(=O)c1ccccc1I (stereo not shown) [drawing 15]
Efficacy in % [9]: 93%

SMILES: CC(C)CC(C)c1ccccc1NC(=O)c1ccccc1I (stereo not shown) [drawing 17]
Efficacy in % [8]: 100%

SMILES: CC(C)CC(C)c1ccccc1NC(=O)c1ccccc1C(F)(F)F (stereo not shown) [drawing 14]
Efficacy in % [9]: 93%
